From US20220135538A1, “P300/CBP HAT INHIBITORS AND METHODS FOR THEIR USE” (Constellation Pharmaceuticals, Inc., priority 2019, published 2022) come the findings set out here.

For the test, the target named is T1, p300 HAT domain (residues 1287-1666) (Homo sapiens, UniProt Q09472).
T1 construct: The p300 HAT domain (residues 1287-1666) was expressed; His tag (N); made in house; host or cells: Escherichia coli
T1 sequence (Q09472 1287-1666): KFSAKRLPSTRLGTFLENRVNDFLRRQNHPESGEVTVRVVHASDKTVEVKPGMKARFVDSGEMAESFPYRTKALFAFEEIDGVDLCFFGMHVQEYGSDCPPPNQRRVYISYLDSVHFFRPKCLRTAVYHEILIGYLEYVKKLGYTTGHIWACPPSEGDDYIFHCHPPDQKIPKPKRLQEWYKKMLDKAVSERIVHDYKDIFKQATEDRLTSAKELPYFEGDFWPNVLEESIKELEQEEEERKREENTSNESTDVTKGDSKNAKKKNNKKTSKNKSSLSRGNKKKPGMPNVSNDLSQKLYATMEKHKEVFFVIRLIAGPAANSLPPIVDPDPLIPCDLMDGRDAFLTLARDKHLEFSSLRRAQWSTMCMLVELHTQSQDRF
Put plainly: P300 HAT SPA assay (scintillation proximity, acetylation of biotinylated H3(1-21) peptide). In kind it is biochemical. As to conditions: 6 nM p300-HAT domain; average of at least 2 replicate titrations. As to the method: The activity of the compounds described herein as p300/CBP HAT inhibitors may be readily determined using a scintillation proximity assay (SPA) methodology (Udenfriend, S.; Gerber, L.; Nelson, N. Scintillation Proximity Assay: A Sensitive and Continuous Isotopic Method for Monitoring Ligand/Receptor and Antigen/Antibody Interactions. Anal. Biochem. 1987, 161, 494-500).
In a typical experiment the p300 HAT inhibitory activity of the compounds described herein was determined in accordance with the following experimental method.
The p300 HAT domain (residues 1287-1666) was expressed and purified with an N-terminal His tag from Escherichia coli cells. The expressed protein was purified by Ni2+affinity, followed by anion exchange chromatography. Appropriate fractions were pooled and buffer exchanged into 20 mM Hepes pH 7.5, 150 mM NaCl, and 1 mM TCEP.
Compounds of interest solubilized in DMSO were stamped in a Greiner black 384-well plate in a 10-point duplicate dose response using an Echo 550 (Labcyte). p300-HAT domain purified in-house (aa 1287-1666) was diluted to 6 nM in reaction buffer (50 mM Tris pH 8.0, 100 mM NaCl, 1 mM DTT, 0.069 mM Brij-35, 0.1 mM EDTA, 0.1 mg/mL BSA), combined with 4.14 μM AcCoA (Sigma-Aldrich) and 0.46 μM ^3H-AcCoA (PerkinElmer), and 12.5 μL added to each well and incubated for 30 min at RT. Reactions were initiated with 12.5 μL 2 μM biotinylated H3(1-21) peptide (New England Peptide) and run for 1 hr at RT, then quenched with 20 μL stop solution (200 mM Tris pH 8.0, 200 mM EDTA, 2M NaCl, 160 μM anacardic acid). 35 μL of the reaction volume was transferred to a 384-well streptavidin FlashPlate (PerkinElmer) using a Bravo liquid handler (Velocity 11) and incubated for 1.5 hr at RT. Plates were aspirated, washed with 95 μL wash buffer (15 mM Tris pH 8.5, 0.069 μM Brij-35), aspirated, sealed, and scintillation counts read on a Topcount (PerkinElmer). Data were analyzed in Genedata to determine inhibitor IC50 values.
Background: In a scintillation proximity assay essentially only radioactivity close to the scintillant gives light.
As to `CC(=O)N1CC(Oc2ccc(NC(=O)C(NC[C@@H](C)c3ccc(C#N)cc3)c3ccccc3)nc2)C1` (single isomer, unassigned) [2 Isomer 2], the IC50 is > 2000 nM.

Take `CN1CC(Oc2ccc(NC(=O)C(NCCc3ccc(Cl)cc3)c3ccccc3)nc2)CN(C)C1=O` (single isomer, unassigned) [3 Isomer 1]: the IC50 is > 2000 nM.

For `CN1CC(Oc2ccc(NC(=O)C(NCCc3ccc(Cl)cc3)c3ccccc3)nc2)CN(C)C1=O` (single isomer, unassigned) [3 Isomer 2], the 50% inhibitory concentration (IC50) came to 117 nM. Consider `N#Cc1ccc(CCNC(C(=O)Nc2ccc(O[C@@H]3CCOC3)cn2)c2ccccc2)cc1` (single isomer, unassigned) [4 Isomer 1], for which half-maximal inhibition (IC50) required 91.4 nM. Under `N#Cc1ccc(CCNC(C(=O)Nc2ccc(O[C@@H]3CCOC3)cn2)c2ccccc2)cc1` (single isomer, unassigned) [4 Isomer 2] stands > 2000 nM. Under `N#Cc1ccc(CCNC(C(=O)Nc2ccc(OC3COC3)cn2)c2ccccc2)cc1` (single isomer, unassigned) [6 Isomer 1] stands 39.9 nM; under `N#Cc1ccc(CCNC(C(=O)Nc2ccc(OC3COC3)cn2)c2ccccc2)cc1` (single isomer, unassigned) [6 Isomer 2], 1140 nM; under `O=C(Nc1ccc(OCCn2cccn2)cn1)C(NCCc1ccc(Cl)cc1)c1ccccc1` (single isomer, unassigned) [7 Isomer 1], > 2000 nM. In turn, `O=C(Nc1ccc(OCCn2cccn2)cn1)C(NCCc1ccc(Cl)cc1)c1ccccc1` (single isomer, unassigned) [7 Isomer 2] showed an IC50 of 98.5 nM. In the case of `Cn1cc(COc2ccc(NC(=O)C(NCCc3ccc(Cl)cc3)c3ccccc3)nc2)cn1` (single isomer, unassigned) [8 Isomer 1], inhibition was half-maximal at 1360 nM (IC50).

`CN1CC(Oc2ccc(NC(=O)C(NCCc3ccc(Cl)cc3)c3ccccc3)nc2)CCC1=O` (single isomer, unassigned) [10 Isomer 1]: the IC50 came out at 94.2 nM. The value for `CN1CC(Oc2ccc(NC(=O)C(NCCc3ccc(Cl)cc3)c3ccccc3)nc2)CCC1=O` (single isomer, unassigned) [10 Isomer 2] was > 2000 nM; that for `CN1CC(Oc2ccc(NC(=O)C(NCCc3ccc(Cl)cc3)c3ccccc3)nc2)CCC1=O` (single isomer, unassigned) [10 Isomer 3] was 45.4 nM; that for `CN1CC(Oc2ccc(NC(=O)C(NCCc3ccc(Cl)cc3)c3ccccc3)nc2)CCC1=O` (single isomer, unassigned) [10 Isomer 4] was > 2000 nM.

For the compound `CN1CCC(Oc2ccc(NC(=O)C(NCCc3ccc(Cl)cc3)c3ccccc3)nc2)CC1` (single isomer, unassigned) [11 Isomer 1], the IC50 turned out to be 26.6 nM. Under `CN1CCC(Oc2ccc(NC(=O)C(NCCc3ccc(Cl)cc3)c3ccccc3)nc2)CC1` (single isomer, unassigned) [11 Isomer 2] stands > 2000 nM; under `CN1CCC(Oc2ccc(NC(=O)C(NCCc3ccc(C#N)cc3)c3ccccc3)nc2)C1=O` (single isomer, unassigned) [12 Isomer 1], 65 nM. `CN1CCC(Oc2ccc(NC(=O)C(NCCc3ccc(C#N)cc3)c3ccccc3)nc2)C1=O` (single isomer, unassigned) [12 Isomer 2] had a half-maximal inhibitory concentration (IC50) of 63 nM. Take `CN1CCC(Oc2ccc(NC(=O)C(NCCc3ccc(C#N)cc3)c3ccccc3)nc2)C1=O` (single isomer, unassigned) [12 Isomer 3]: the concentration for half-maximal inhibition (IC50) is > 2000 nM. For the compound `CN1CCC(Oc2ccc(NC(=O)C(NCCc3ccc(C#N)cc3)c3ccccc3)nc2)C1=O` (single isomer, unassigned) [12 Isomer 4], the IC50 was > 2000 nM.

Turning to `CC(=O)N1CC[C@H](Oc2ccc(NC(=O)C(NCCc3ccc(C#N)cc3)c3ccccc3)nc2)C1` (single isomer, unassigned) [13 Isomer 1], the IC50 is > 2000 nM. The compound `CC(=O)N1CC[C@H](Oc2ccc(NC(=O)C(NCCc3ccc(C#N)cc3)c3ccccc3)nc2)C1` (single isomer, unassigned) [13 Isomer 2] had an IC50 of 59.9 nM. Under `CC(=O)N1CC[C@@H](Oc2ccc(NC(=O)C(NCCc3ccc(C#N)cc3)c3ccccc3)nc2)C1` (single isomer, unassigned) [14 Isomer 1] stands 36.2 nM; under `CC(=O)N1CC[C@@H](Oc2ccc(NC(=O)C(NCCc3ccc(C#N)cc3)c3ccccc3)nc2)C1` (single isomer, unassigned) [14 Isomer 2], > 2000 nM. The value for `CC(=O)N1CCC[C@H](Oc2ccc(NC(=O)C(NCCc3ccc(C#N)cc3)c3ccccc3)nc2)C1` (single isomer, unassigned) [15 Isomer 1] was 272 nM; that for `CC(=O)N1CCC[C@H](Oc2ccc(NC(=O)C(NCCc3ccc(C#N)cc3)c3ccccc3)nc2)C1` (single isomer, unassigned) [15 Isomer 2] was > 2000 nM. The value for `CC(=O)N1CCC[C@@H](Oc2ccc(NC(=O)C(NCCc3ccc(C#N)cc3)c3ccccc3)nc2)C1` (single isomer, unassigned) [16 Isomer 1] was 164 nM; that for `CC(=O)N1CCC[C@@H](Oc2ccc(NC(=O)C(NCCc3ccc(C#N)cc3)c3ccccc3)nc2)C1` (single isomer, unassigned) [16 Isomer 2] was > 2000 nM; that for `CC(CNC(C(=O)Nc1ccc(Oc2cnn(C)c2)cn1)c1ccccc1)c1ccc(C#N)cc1` (single isomer, unassigned) [17 Isomer 1] was 33.7 nM. As to `CC(CNC(C(=O)Nc1ccc(Oc2cnn(C)c2)cn1)c1ccccc1)c1ccc(C#N)cc1` (single isomer, unassigned) [17 Isomer 2], the IC50 was > 2000 nM. As to `CC(CNC(C(=O)Nc1ccc(Oc2cnn(C)c2)cn1)c1ccccc1)c1ccc(C#N)cc1` (single isomer, unassigned) [17 Isomer 3], the half-maximal inhibitory concentration (IC50) is > 2000 nM. The value for `CC(CNC(C(=O)Nc1ccc(Oc2cnn(C)c2)cn1)c1ccccc1)c1ccc(C#N)cc1` (single isomer, unassigned) [17 Isomer 4] was > 2000 nM; that for `CC(Oc1ccc(NC(=O)C(NCCc2ccc(C#N)cc2)c2ccccc2)nc1)c1cnn(C)c1` (single isomer, unassigned) [18 Isomer 1] was 311 nM; that for `CC(Oc1ccc(NC(=O)C(NCCc2ccc(C#N)cc2)c2ccccc2)nc1)c1cnn(C)c1` (single isomer, unassigned) [18 Isomer 2] was 209 nM.

Consider `CC(Oc1ccc(NC(=O)C(NCCc2ccc(C#N)cc2)c2ccccc2)nc1)c1cnn(C)c1` (single isomer, unassigned) [18 Isomer 3], for which the half-maximal inhibitory concentration (IC50) was > 2000 nM. Consider `CC(Oc1ccc(NC(=O)C(NCCc2ccc(C#N)cc2)c2ccccc2)nc1)c1cnn(C)c1` (single isomer, unassigned) [18 Isomer 4], for which the IC50 was > 2000 nM. Under `N#Cc1ccc(CCNC(C(=O)Nc2ccc(OCCN3CCOC3=O)cn2)c2ccccc2)cc1` (single isomer, unassigned) [19 Isomer 1] stands 56.6 nM. For `N#Cc1ccc(CCNC(C(=O)Nc2ccc(OCCN3CCOC3=O)cn2)c2ccccc2)cc1` (single isomer, unassigned) [19 Isomer 2], the IC50 is > 2000 nM. The value for `CC(CNC(C(=O)Nc1ccc(OC2CCN(C(=O)C3CC3)CC2)cn1)c1ccccc1)c1ccc(C#N)cc1` (single isomer, unassigned) [20 Isomer 1] was > 2000 nM; that for `CC(CNC(C(=O)Nc1ccc(OC2CCN(C(=O)C3CC3)CC2)cn1)c1ccccc1)c1ccc(C#N)cc1` (single isomer, unassigned) [20 Isomer 2] was 26.7 nM; that for `CC(CNC(C(=O)Nc1ccc(OC2CN(C(=O)C3CC3)C2)cn1)c1ccccc1)c1ccc(C#N)cc1` (single isomer, unassigned) [21 Isomer 2] was > 2000 nM. Under `Cc1cnc(Oc2ccc(NC(=O)C(NCCc3ccc(C#N)cc3)c3ccccc3)nc2)nc1` (single isomer, unassigned) [22 Isomer 1] stands > 2000 nM; under `Cc1cnc(Oc2ccc(NC(=O)C(NCCc3ccc(C#N)cc3)c3ccccc3)nc2)nc1` (single isomer, unassigned) [22 Isomer 2], 1390 nM.

A word on the IC50: it is the concentration that gives 50% inhibition. A higher IC50 goes with a need for much substance.
